Experimental data from ChEMBL document CHEMBL1201862, “PubChem BioAssay data set” (2004).
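Results reflect a 48-hour exposure of cells in 96-well plates to compound at five concentrations. GI50 is the concentration that inhibits growth by half.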 Active and inactive are the calls of the source. No stated cut-off is given here; in the data, active = GI50 up to about 1.1 µM and inactive = higher.

Tests used:
Assay in all cases: inhibition of tumour cell growth, NCI panel, 48 h
EKVX = system: EKVX
RXF 393 = system: RXF 393
NCI-H460 = system: NCI-H460
LOX IMVI = system: LOX IMVI
HOP-62 = system: HOP-62
NCI-H226 = system: NCI-H226
IGROV-1 = system: IGROV-1
OVCAR-5 = system: OVCAR-5
CCRF-CEM = system: CCRF-CEM
TK-10 = system: TK-10
HCC 2998 = system: HCC 2998
UO-31 = system: UO-31
CAKI-1 = system: CAKI-1
SK-MEL-28 = system: SK-MEL-28
UACC-257 = system: UACC-257
NCI-H522 = system: NCI-H522
HCT-116 = system: HCT-116
MDA-MB-435 = system: MDA-MB-435
NCI/ADR-RES = system: NCI/ADR-RES

| SMILES | GI50 (EKVX) | GI50 (RXF 393) | GI50 (NCI-H460) | GI50 (LOX IMVI) | GI50 (HOP-62) | GI50 (NCI-H226) | GI50 (IGROV-1) | GI50 (OVCAR-5) | GI50 (CCRF-CEM) | GI50 (TK-10) | GI50 (HCC 2998) | GI50 (UO-31) | GI50 (CAKI-1) | GI50 (SK-MEL-28) | GI50 (UACC-257) | GI50 (NCI-H522) | GI50 (HCT-116) | GI50 (MDA-MB-435) | GI50 (NCI/ADR-RES) |
| --- | --- | --- | --- | --- | --- | --- | --- | --- | --- | --- | --- | --- | --- | --- | --- | --- | --- | --- | --- |
| CC1=C(C(=O)Nc2ccc([N+](=O)[O-])cc2)C(c2ccccc2O)C(C(=O)Nc2ccc([N+](=O)[O-])cc2)=C(C)N1 | 23.1 µM (inactive) | 10.1 µM (inactive) | 21.4 µM (inactive) | 16.1 µM (inactive) | 14.1 µM (inactive) | 16.6 µM (inactive) | 25.9 µM (inactive) | 16 µM (inactive) | 18 µM (inactive) | 44.7 µM (inactive) | 13.5 µM (inactive) | 15.2 µM (inactive) | 21.4 µM (inactive) | 21.6 µM (inactive) | 21.7 µM (inactive) | 15 µM (inactive) | – | – | – |
| CCSc1nc2sc(C)c(C)c2c(=O)n1-c1ccc(C(=O)O)cc1 | 54 µM (inactive) | 25.5 µM (inactive) | 60.1 µM (inactive) | 56.2 µM (inactive) | 88.5 µM (inactive) | 19.8 µM (inactive) | 90.8 µM (inactive) | > 100 µM (inactive) | 52.5 µM (inactive) | > 100 µM (inactive) | 85.1 µM (inactive) | 25.1 µM (inactive) | > 100 µM (inactive) | 54.5 µM (inactive) | 98.4 µM (inactive) | 23.2 µM (inactive) | 22.7 µM (inactive) | – | – |
| Cc1ccc(Nc2nc(C)c(C(/C=C/c3ccc(/C=C/C(=N/NC(=O)C[n+]4ccccc4)c4sc(Nc5ccc(C)cc5[N+](=O)[O-])nc4C)cc3)=N\NC(=O)C[n+]3ccccc3)s2)c([N+](=O)[O-])c1 | 78.3 µM (inactive) | > 100 µM (inactive) | > 100 µM (inactive) | 73.3 µM (inactive) | > 100 µM (inactive) | 14.6 µM (inactive) | > 100 µM (inactive) | 50.8 µM (inactive) | 32.3 µM (inactive) | 51.3 µM (inactive) | > 100 µM (inactive) | 46.5 µM (inactive) | 48.6 µM (inactive) | > 100 µM (inactive) | > 100 µM (inactive) | > 100 µM (inactive) | > 100 µM (inactive) | – | – |
| Cc1cc(C)c(C(=O)O)c(N)c1O | > 100 µM (inactive) | > 100 µM (inactive) | – | > 100 µM (inactive) | > 100 µM (inactive) | > 100 µM (inactive) | > 100 µM (inactive) | > 100 µM (inactive) | > 100 µM (inactive) | > 100 µM (inactive) | > 100 µM (inactive) | > 100 µM (inactive) | > 100 µM (inactive) | > 100 µM (inactive) | > 100 µM (inactive) | > 100 µM (inactive) | > 100 µM (inactive) | – | – |
| CC(C)(C)c1nc2c(o1)/C(=N\c1ccccc1)c1ccccc1C2=O | 13 µM (inactive) | 4.91 µM (inactive) | 6.12 µM (inactive) | 0.603 µM (active) | 17.3 µM (inactive) | 9.42 µM (inactive) | 6.87 µM (inactive) | 13.6 µM (inactive) | 5.61 µM (inactive) | 30.2 µM (inactive) | 18.6 µM (inactive) | 5.89 µM (inactive) | 12 µM (inactive) | 4.4 µM (inactive) | 1.72 µM (inactive) | 2.91 µM (inactive) | 3.23 µM (inactive) | – | – |
| CCOC(=O)/C(C#N)=C/c1[nH]c(C)c(C)c1C | > 100 µM (inactive) | > 100 µM (inactive) | > 100 µM (inactive) | > 100 µM (inactive) | > 100 µM (inactive) | > 100 µM (inactive) | > 100 µM (inactive) | > 100 µM (inactive) | > 100 µM (inactive) | > 100 µM (inactive) | > 100 µM (inactive) | > 100 µM (inactive) | > 100 µM (inactive) | – | > 100 µM (inactive) | > 100 µM (inactive) | > 100 µM (inactive) | – | – |
| CN(C)C1(N(C)C)Oc2c(c(=O)n(C)c(=O)n2C)C(c2ccccc2Br)C1(F)F (configuration not stated) | > 100 µM (inactive) | > 100 µM (inactive) | > 100 µM (inactive) | > 100 µM (inactive) | > 100 µM (inactive) | > 100 µM (inactive) | – | > 100 µM (inactive) | > 100 µM (inactive) | > 100 µM (inactive) | > 100 µM (inactive) | > 100 µM (inactive) | > 100 µM (inactive) | > 100 µM (inactive) | > 100 µM (inactive) | – | > 100 µM (inactive) | > 100 µM (inactive) | > 100 µM (inactive) |
| O=C(c1ccccc1)N1C2CCC1C(C(F)(F)F)=C2C(F)(F)F | > 100 µM (inactive) | > 100 µM (inactive) | > 100 µM (inactive) | > 100 µM (inactive) | > 100 µM (inactive) | > 100 µM (inactive) | > 100 µM (inactive) | > 100 µM (inactive) | > 100 µM (inactive) | > 100 µM (inactive) | > 100 µM (inactive) | > 100 µM (inactive) | > 100 µM (inactive) | – | > 100 µM (inactive) | > 100 µM (inactive) | > 100 µM (inactive) | – | – |
